# Calls of active or inactive are those of the source.
# How the values were obtained:
# Ephrin type-A receptor 4 = Ephrin type-A receptor 4 (Mus musculus, UniProt Q03137); experiment: inhibitors of EphA4 binding to KYL peptide, primary screen, biochemical, colorimetric, mouse EphA4 (AID 689); type: functional
# [1] = cytotoxicity toward NIH3T3 fibroblasts, dose response, counter-screen, cell-based, ATP luminescence, mouse fibroblasts (AID 2010); type: functional;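 further: cells exposed to compound for about 90 hours before reading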
# [2] = inhibitors of intracellular T. cruzi replication, confirmation, NIH3T3 host cells, beta-gal luminescence (AID 2044); type: functional, cell-based;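 further: intracellular parasites grown in NIH/3T3 mouse fibroblasts as host cells; luminescent beta-galactosidase reporter signal from transgenic T. cruzi replicating inside host cells; inhibitors lower the luminescence signal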
# [3] = target: T1, Tyrosine-protein phosphatase non-receptor type 7 (Homo sapiens, UniProt P35236); experiment: inhibitors of human HePTP phosphatase, […], biochemical, absorbance, leukemia target (AID 521); type: functional
# T1 sequence (P35236 whole entry): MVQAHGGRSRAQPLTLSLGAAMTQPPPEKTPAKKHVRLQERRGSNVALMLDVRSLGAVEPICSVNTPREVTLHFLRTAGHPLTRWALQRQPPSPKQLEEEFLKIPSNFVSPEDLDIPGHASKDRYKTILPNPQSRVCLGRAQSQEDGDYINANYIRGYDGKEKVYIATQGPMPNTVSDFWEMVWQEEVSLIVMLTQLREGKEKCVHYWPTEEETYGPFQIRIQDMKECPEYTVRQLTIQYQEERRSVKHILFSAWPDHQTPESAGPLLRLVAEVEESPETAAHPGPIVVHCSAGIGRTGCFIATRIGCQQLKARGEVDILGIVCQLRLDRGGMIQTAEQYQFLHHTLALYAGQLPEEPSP
# [4] = target: Peroxisome proliferator-activated receptor gamma/Nuclear receptor corepressor 2 (Homo sapiens, UniProt P37231+Q9Y618); experiment: Counterscreen for NR2E3 inverse agonists: TR-FRET-based biochemical high throughput dose response assay to identify inverse agonists of the interaction between peroxisome proliferator-activated receptor gamma (PPARg) and nuclear receptor co-repressor 2 (NCOR2).; type: functional
# [5] = target: Photoreceptor-specific nuclear receptor (Homo sapiens, UniProt Q9Y5X4); experiment: NR2E3 inverse agonists, dose response, biochemical, TR-FRET (AID 463256); type: functional
# [6] = M. tuberculosis growth inhibition, HTS (AID 449762); type: functional
# NADPH oxidase 1 = target: T2, NADPH oxidase 1 (Homo sapiens, UniProt Q9Y5S8); type: functional, cell-based;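 further: Cell-based assay with luminescence read-out, IC50 derived from inhibitor dose-response curves; intracellular ROS from endogenous NOX1 in intact HT29 colon cancer cells; potency of inhibitors that lower the ROS luminescence signal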
# T2 sequence (Q9Y5S8 whole entry): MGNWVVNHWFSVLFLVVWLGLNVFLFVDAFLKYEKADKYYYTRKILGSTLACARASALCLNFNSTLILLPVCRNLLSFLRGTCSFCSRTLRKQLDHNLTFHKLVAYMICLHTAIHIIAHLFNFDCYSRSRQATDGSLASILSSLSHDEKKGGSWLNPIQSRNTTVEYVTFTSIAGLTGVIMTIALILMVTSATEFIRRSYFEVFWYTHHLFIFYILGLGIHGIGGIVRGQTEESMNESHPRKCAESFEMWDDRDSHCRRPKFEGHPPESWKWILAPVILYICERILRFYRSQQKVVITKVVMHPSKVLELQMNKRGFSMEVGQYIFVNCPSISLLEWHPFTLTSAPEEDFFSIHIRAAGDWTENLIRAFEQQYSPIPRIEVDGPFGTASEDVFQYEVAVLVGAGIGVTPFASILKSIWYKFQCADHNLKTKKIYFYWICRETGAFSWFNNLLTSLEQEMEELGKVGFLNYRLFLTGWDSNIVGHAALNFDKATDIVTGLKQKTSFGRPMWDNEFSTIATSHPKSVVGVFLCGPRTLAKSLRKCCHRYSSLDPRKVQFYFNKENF
# [7] = target: 5-hydroxytryptamine receptor 1A (Homo sapiens, UniProt P08908); type: functional
# Sequence of 5-hydroxytryptamine receptor 1A (P08908 whole entry): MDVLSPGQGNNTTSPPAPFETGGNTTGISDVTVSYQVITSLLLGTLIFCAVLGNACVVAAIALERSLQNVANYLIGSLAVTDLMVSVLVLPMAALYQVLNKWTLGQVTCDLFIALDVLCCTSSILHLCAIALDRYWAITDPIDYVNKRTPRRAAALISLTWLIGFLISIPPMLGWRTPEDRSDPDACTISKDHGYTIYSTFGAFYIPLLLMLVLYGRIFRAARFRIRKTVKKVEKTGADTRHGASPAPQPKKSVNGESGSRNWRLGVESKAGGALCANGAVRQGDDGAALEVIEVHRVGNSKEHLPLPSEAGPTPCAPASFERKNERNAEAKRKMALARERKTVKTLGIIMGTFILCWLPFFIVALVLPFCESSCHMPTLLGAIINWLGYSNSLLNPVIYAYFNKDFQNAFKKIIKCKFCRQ
# [8] = target: E3 ubiquitin-protein ligase Mdm2 (Homo sapiens, UniProt Q00987); experiment: enhancers of MDM2-luciferase reporter signal, concentration-effect titration, project on inhibitors of MDM2 ubiquitin ligase, cellular assay, luminescent readout, 384-well plate format (AID 1394); type: functional;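 further: MDM2 E3 inhibitors raise luminescence so EC50 is for signal enhancement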
# Sequence of E3 ubiquitin-protein ligase Mdm2 (Q00987 whole entry): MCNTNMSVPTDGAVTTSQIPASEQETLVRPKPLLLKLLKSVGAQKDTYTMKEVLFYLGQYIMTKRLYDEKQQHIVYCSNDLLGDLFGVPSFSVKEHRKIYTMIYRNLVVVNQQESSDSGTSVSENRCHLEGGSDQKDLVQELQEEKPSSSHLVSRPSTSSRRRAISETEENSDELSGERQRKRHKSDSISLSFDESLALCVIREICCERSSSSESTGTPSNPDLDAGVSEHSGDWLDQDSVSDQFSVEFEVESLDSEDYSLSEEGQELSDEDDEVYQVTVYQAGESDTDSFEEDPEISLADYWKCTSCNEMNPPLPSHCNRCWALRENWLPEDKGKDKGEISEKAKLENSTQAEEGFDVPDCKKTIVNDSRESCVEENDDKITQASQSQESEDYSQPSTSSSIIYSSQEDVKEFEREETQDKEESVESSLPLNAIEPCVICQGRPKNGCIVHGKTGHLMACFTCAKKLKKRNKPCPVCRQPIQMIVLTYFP
# Mucolipin-3 = Mucolipin-3 (Homo sapiens, UniProt Q8TDD5); experiment: Dose response cell-based high-throughput screening assay for agonists of the transient receptor potential channel ML3 (TRPML3). [Related pubchem assays: 1526, 1424, 1448 ]; type: functional
# Sequence of Mucolipin-3 (Q8TDD5 whole entry): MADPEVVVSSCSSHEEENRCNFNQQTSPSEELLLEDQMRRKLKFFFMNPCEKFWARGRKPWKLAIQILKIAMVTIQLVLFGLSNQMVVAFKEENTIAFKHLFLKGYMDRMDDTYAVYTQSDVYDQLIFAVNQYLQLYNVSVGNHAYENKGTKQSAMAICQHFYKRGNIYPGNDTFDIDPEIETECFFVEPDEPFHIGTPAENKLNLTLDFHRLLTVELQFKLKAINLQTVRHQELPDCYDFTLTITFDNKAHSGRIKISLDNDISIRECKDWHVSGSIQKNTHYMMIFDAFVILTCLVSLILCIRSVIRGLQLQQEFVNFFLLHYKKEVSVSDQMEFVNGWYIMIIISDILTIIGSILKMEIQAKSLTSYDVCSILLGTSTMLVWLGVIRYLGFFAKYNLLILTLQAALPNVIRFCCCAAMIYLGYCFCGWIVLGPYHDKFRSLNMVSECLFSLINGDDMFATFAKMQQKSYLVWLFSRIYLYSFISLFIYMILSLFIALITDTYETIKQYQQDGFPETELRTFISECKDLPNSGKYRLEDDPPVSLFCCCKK
# [9] = P. falciparum late gametocyte killing, dose response, luminescence (AID 1117278); type: functional, cell-based;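 further: gametocytes exposed to compound for 24 hours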
# Ion channel NompC = Ion channel NompC (Danio rerio, UniProt Q7T1G6); experiment: Fluorescence counterscreen assay for TRPML3 agonists: dose response cell-based high-throughput screening assay to identify agonists of the transient receptor potential channel N1 (TRPN1). [Related pubchem assays: 1526, 1424, 1448 ]; type: functional
# [10] = Jurkat T cell cytotoxicity, dose response, cytotoxicity control for P. falciparum gametocyte viability project, luminescence (AID 1117277); type: functional, cell-based;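 further: potency reflects loss of cellular ATP meaning fewer viable cells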
# Estrogen receptor beta [11] = target: T3, Estrogen receptor beta (Homo sapiens, UniProt Q92731);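 further: recombinant ER-beta bound to coactivator SRC1 peptide in presence of estradiol agonist; inhibitors block coactivator peptide binding and lower the FRET signal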
# T3 sequence (Q92731 whole entry): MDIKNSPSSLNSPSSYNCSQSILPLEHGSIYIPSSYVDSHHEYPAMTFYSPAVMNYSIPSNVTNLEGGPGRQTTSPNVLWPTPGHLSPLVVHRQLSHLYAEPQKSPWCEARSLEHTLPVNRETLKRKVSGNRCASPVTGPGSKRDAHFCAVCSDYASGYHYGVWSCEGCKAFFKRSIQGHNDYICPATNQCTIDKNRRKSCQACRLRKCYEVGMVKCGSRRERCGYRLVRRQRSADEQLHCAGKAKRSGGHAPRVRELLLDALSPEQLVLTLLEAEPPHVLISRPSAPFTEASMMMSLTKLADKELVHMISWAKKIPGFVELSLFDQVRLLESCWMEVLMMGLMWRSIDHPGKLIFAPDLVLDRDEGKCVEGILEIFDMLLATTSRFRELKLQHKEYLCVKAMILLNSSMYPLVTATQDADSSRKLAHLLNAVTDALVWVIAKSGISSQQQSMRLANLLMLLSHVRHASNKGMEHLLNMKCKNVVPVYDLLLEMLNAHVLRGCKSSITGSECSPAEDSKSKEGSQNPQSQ
# Estrogen receptor beta [12] = target: T3, Estrogen receptor beta; experiment: ERβ–SRC-3 coactivator interaction inhibitors, confirmation, orthogonal assay, biochemical, ELISA, streptavidin-HRP readout (AID 1060)
# H9c2 = experiment: cells; type: functional, cell-based; details: Rattus norvegicus, H9c2, Myocardium;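 further: confirmatory concentration-response retest of ultra-high-throughput screening hits for modulation of myocardial damage; cell death induced by hydrogen peroxide oxidative stress; compound pretreatment for 60 min then peroxide exposure for 2 h; potency is for protecting the cells against peroxide damage rather than for killing them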
# [13] = target: Neuropeptides B/W receptor type 1 (Homo sapiens, UniProt P48145); experiment: Fluorescence-based dose response cell-based high throughput screening assay to identify antagonists of the G-protein coupled receptor 7 (GPR7). [Related pubchem assays: 1952 (Screening assay (GPR7 antagonists).), 1880 (Summary AID.)]; type: functional
# Sequence of Neuropeptides B/W receptor type 1 (P48145 whole entry): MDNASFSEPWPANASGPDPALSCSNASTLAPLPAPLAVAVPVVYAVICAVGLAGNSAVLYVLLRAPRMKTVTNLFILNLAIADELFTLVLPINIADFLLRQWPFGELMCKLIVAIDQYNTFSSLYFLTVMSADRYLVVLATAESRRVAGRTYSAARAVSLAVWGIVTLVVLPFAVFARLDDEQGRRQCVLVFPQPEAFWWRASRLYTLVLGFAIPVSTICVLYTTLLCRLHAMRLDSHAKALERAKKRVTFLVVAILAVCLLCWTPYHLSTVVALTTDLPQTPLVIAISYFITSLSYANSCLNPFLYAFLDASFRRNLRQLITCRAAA
# [14] = target: Melanin-concentrating hormone receptor 1 (Homo sapiens, UniProt Q99705); experiment: Fluorescence-based counterscreen for antagonists of the G-protein coupled receptor 7 (GPR7): cell-based high throughput dose response assay to identify antagonists of the melanin-concentrating hormone receptor 1 (MCHR1).; type: functional
# Sequence of Melanin-concentrating hormone receptor 1 (Q99705 whole entry): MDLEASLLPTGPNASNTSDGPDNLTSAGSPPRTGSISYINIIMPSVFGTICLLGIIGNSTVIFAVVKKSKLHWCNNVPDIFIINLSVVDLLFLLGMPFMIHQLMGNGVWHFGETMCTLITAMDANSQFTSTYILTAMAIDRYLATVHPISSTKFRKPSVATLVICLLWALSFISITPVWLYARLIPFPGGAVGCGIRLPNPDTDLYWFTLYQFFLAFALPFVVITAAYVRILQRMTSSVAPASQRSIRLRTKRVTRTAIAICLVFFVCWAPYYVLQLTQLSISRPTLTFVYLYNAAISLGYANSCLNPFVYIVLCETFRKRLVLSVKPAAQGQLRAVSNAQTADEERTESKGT
# [15] = target: T4, Heat shock factor protein 1 (Mus musculus, UniProt P38532); experiment: inhibition of MG132-induced HSE-luciferase signal, confirmation, cell-based, NIH3T3, luminescence, dose retest (AID 2382); type: functional;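 further: NIH3T3 fibroblasts with HSF1-driven luciferase reporter stressed by proteasome inhibitor MG132; luminescence from HSF1-driven luciferase expression after 8 hours of MG132 stress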
# T4 sequence (P38532 whole entry): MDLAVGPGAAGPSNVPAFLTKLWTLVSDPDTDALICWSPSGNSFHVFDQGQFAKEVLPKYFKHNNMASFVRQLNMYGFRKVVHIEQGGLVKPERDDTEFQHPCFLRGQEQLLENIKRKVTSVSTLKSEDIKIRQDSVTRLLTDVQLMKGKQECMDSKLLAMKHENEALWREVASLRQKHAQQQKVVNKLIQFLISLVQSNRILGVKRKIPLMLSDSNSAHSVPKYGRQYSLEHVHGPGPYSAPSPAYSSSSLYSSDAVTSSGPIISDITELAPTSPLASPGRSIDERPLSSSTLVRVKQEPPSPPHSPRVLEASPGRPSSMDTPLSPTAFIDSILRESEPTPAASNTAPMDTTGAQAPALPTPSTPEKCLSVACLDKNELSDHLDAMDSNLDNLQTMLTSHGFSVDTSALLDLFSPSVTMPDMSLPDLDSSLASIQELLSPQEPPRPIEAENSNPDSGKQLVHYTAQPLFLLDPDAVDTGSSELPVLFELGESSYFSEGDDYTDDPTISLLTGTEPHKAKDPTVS
# [16] = Luminescence-based dose response cell-based high throughput screening assay for cytotoxic compounds using the IEC-6 intestinal epithelial cell line. [Related pubchem assays: 1858 (Summary AID.), 1825 (Counterscreen.), 1907 (Confirmation screen.)]; type: functional
# BJ [17] = experiment: cells; type: functional, cell-based; details: Homo sapiens
# BJ [18] = experiment: cytotoxicity toward Ras-transformed BJeLR fibroblasts, dose response, cell-based, alamar blue fluorescence, cherrypicked samples (AID 2631); type: functional; details: Homo sapiens;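 further: confirmatory dose-response assay in RAS-dependent BJ fibroblasts engineered with TERT, LT and ST, with cytotoxicity read by fluorescence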
# BJ [19] = experiment: cytotoxicity toward BJ-TERT-LT-ST fibroblasts, dose response, cell-based, RAS-independent, luminescence (AID 1935); type: functional; details: Homo sapiens;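 further: BJ fibroblasts immortalized with TERT plus LT and ST oncogenes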
# BJ [20] = experiment: cytotoxicity toward BJ-TERT fibroblasts, dose response, cell-based, RAS-independent, luminescence (AID 1933); type: functional; details: Homo sapiens
# [21] = cytotoxicity toward DRD oncogenic fibroblasts, dose response, cell-based, non-viral oncogenic, luminescence (AID 1934); type: functional; details: Homo sapiens
# [22] = target: Voltage-gated inwardly rectifying potassium channel KCNH2 (Homo sapiens, UniProt Q12809); experiment: hERG protection from proarrhythmic block, potency, dose response, cell-based, thallium flux (AID 2121); type: ADME
# [23] = tested on: Streptococcus sp. 'group A'; experiment: growth inhibition of control SK(-) GAS strain, dose response, counter-screen for streptokinase expression inhibitor project, luminescence, kanamycin, BacTiterGlo, confirmation (AID 1900); type: functional, organism-based
# Streptococcus = experiment: Group A Streptococcus viability loss, dose response, counter-screen for streptokinase expression inhibitor project, luminescence, BacTiterGlo (AID 1915); type: functional, organism-based;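 further: potency for reduction of bacterial viability or growth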
# Streptokinase A = target: T5, Streptokinase A (Streptococcus pyogenes serotype M1, UniProt P10520); experiment: S. pyogenes streptokinase expression inhibitors, potency, dose response, plasminogen activation absorbance, OD405 (AID 1914); type: functional, Streptococcus pyogenes M1 GAS;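 further: secreted streptokinase activity via plasminogen activation per viability signal from cell pellet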
# T5 sequence (P10520 whole entry): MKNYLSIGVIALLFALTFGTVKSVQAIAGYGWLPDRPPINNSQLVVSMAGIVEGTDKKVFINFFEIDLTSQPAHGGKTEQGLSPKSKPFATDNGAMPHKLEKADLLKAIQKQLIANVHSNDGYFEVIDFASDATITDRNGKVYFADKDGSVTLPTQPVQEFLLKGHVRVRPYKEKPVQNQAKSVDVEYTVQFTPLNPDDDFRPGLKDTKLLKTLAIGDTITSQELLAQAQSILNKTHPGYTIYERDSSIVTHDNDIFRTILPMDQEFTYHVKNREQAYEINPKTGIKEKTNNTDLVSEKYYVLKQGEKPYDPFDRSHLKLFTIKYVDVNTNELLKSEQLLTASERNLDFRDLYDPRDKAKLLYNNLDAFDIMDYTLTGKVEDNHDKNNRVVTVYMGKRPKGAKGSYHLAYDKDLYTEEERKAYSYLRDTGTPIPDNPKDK
# [24] = Luminescent dose response cell-based high throughput screening assay for inhibitors of the Janus kinase 2 mutant JAK2V617F. [Related pubchem assays: 1446 (Primary screen.), 1521 (Confirmation assay.), 1486 (Counter screen.)]; type: functional
# [25] = target: T6, E3 ubiquitin-protein ligase XIAP (Homo sapiens, UniProt P98170); experiment: XIAP antagonists, biochemical, IAP family, fluorescence polarization (AID 1018); type: functional
# T6 sequence (P98170 whole entry): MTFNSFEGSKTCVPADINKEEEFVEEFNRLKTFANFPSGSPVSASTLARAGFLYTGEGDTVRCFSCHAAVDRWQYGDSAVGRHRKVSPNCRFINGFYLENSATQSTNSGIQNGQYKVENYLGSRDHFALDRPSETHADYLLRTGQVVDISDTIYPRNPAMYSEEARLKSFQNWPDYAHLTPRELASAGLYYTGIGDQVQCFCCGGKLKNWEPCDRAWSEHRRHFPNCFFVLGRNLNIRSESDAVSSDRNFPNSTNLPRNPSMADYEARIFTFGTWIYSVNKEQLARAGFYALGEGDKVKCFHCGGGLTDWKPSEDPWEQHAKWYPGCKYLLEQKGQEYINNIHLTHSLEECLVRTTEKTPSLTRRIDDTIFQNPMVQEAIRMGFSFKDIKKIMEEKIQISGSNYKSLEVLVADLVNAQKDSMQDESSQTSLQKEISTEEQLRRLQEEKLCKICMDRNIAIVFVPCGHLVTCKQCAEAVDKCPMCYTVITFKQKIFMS
# Large T antigen = Large T antigen (Simian virus 40, UniProt P03070); type: functional, Betapolyomavirus macacae;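 further: Confirmatory-stage PubChem screen for compounds that inhibit SV40 T antigen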
# Sequence of Large T antigen (P03070 whole entry): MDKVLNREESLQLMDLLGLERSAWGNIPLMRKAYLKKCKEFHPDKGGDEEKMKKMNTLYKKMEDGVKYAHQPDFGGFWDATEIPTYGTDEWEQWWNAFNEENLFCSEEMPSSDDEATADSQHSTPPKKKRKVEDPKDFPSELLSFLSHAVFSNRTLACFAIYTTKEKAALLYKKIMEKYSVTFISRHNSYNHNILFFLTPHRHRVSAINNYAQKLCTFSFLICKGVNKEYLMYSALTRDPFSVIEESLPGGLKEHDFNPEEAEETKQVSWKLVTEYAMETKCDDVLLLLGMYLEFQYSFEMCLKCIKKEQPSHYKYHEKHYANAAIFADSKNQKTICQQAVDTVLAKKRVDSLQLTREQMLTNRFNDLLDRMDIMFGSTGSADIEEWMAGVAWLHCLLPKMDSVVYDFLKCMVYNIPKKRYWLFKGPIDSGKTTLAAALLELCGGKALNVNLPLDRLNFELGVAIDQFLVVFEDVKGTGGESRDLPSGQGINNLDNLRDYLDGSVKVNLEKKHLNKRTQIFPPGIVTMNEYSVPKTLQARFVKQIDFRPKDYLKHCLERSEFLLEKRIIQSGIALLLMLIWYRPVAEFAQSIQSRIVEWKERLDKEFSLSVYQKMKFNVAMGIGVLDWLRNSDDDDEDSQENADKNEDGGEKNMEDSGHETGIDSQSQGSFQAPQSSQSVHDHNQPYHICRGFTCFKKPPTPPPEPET
# [26] = target: T6, E3 ubiquitin-protein ligase XIAP; experiment: Counter Screen using XIAP-Bir3 for Chemical Antagonists of Bir1/2 domains of IAP-family anti-apoptotic proteins. [Related pubchem assays (depositor defined):AID1018, AID1449, AID1514, AID1638, AID1749, AID1750, AID488957, AID488963]
# [27] = Dose-response inhibition of insulin secretion in a rat insulinoma line at 5 mM glucose (AID 1117331); type: functional, cell-based; details: INS-1E
# [28] = half-maximal inhibitory concentration for glucagon-like peptide-1 release, STC-1 cell line, dose-response (AID 1117345); type: functional, cell-based
# [29] = Glucagon-like peptide 1 release potency, NCI-H716 cell line, dose-response, half-maximal inhibitory concentration (AID 1117344); type: functional, cell-based
# Sequence of Ephrin type-A receptor 4 (Q03137 whole entry): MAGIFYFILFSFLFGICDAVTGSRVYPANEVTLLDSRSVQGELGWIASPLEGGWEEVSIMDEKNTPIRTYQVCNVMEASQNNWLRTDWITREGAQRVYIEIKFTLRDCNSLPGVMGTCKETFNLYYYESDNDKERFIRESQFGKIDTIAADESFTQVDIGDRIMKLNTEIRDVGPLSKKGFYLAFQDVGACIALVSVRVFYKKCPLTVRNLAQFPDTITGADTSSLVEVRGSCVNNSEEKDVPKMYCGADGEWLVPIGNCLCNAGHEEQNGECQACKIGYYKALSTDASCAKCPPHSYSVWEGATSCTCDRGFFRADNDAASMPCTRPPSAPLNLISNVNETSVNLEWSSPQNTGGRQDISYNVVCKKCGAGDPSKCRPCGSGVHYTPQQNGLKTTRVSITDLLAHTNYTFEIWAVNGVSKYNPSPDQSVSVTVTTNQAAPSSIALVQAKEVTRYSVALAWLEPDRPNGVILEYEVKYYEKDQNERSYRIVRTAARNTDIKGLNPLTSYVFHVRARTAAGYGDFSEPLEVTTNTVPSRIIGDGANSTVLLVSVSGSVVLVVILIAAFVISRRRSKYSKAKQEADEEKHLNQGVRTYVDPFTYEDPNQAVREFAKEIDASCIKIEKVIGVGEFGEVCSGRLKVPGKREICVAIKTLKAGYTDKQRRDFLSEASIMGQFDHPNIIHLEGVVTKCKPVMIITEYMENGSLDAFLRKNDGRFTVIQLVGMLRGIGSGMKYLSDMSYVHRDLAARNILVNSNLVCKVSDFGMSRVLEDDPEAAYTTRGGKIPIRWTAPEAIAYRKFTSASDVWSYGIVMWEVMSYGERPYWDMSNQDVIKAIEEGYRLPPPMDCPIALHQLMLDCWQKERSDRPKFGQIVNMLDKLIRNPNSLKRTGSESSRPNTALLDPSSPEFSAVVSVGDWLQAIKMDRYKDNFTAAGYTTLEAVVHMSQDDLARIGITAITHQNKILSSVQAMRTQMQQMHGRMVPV
compound,measurement,setting,value
CCCCOP(=O)(OCCCC)/C(C#N)=C(/C)O,IC50,Ephrin type-A receptor 4,> 100 µM (not active)
O=C(Nc1ccc2c(c1)OCO2)NC1CCN(Cc2ccccc2)CC1,EC50,[1],> 60 µM (not active)
same,EC50,[2],1 µM (active)
same,IC50,[3],> 100 µM (not active)
COc1ccc(N2CCN(CC(=O)Nc3ccccc3C(=O)NCc3ccccc3)CC2)cc1,IC50,[4],3.53 µM (active)
same,IC50,[5],3.67 µM (active)
CCCSC1=C(C#N)C(c2ccc(Cl)cc2Cl)CC(=O)N1 (stereo not drawn),IC50,[6],> 25 µM (active)
O=C(O)c1nc(Cl)c(Cl)c(N/N=C/c2ccccc2)c1Cl,IC50,NADPH oxidase 1,> 17 µM (not active)
CN(C)CCCn1c(NC(=O)C2CCCCC2)nc2ccccc21,EC50,[7],> 50 µM (not active)
CC(=O)NC1C(=O)N=C(SCC(=O)NC(C)c2ccccc2)NC1=O (stereo not drawn),EC50,[8],1.67 µM (not active)
CCN(C(=O)c1cnc(OC)cc1C(F)(F)F)c1ccc(Cl)cc1Cl,EC50,Mucolipin-3,4.59 µM (active)
same,IC50,[9],> 109 µM (inactive)
same,EC50,Ion channel NompC,8.86 µM (active)
same,IC50,[10],> 83.3 µM (inactive)
COc1ccccc1N1CCN(C(=O)c2ccc3nc(-c4ccco4)c(-c4ccco4)nc3c2)CC1,IC50,Estrogen receptor beta [11],5.96 µM (active)
same,IC50,Estrogen receptor beta [12],9.53 µM (not active)
same,IC50,H9c2,11.7 µM (active)
CCCC(CCC)C(=O)Nc1ccc2c(c1)N(C(=O)CCN1CCN(C)CC1)c1ccccc1CC2,IC50,[13],7.8 µM (active)
same,IC50,[14],15.7 µM (not active)
same,EC50,[15],> 195 µM (not active)
CC(C)(C)c1ccc(C(=O)Nc2ccc(C(=O)NCc3cccnc3)cc2)cc1,IC50,[16],0.177 µM (active)
same,EC50,BJ [17],0.515 µM (active)
same,EC50,BJ [18],0.549 µM (active)
same,EC50,BJ [19],0.88 µM (inconclusive)
same,EC50,BJ [20],25.5 µM (active)
same,EC50,[21],> 150 µM (not active)
COc1ccc(N2CCN(C(=S)NC(=O)c3cccs3)CC2)c([N+](=O)[O-])c1,EC50,[22],12.2 µM (active)
same,EC50,[23],9.37 µM (active)
same,EC50,Streptococcus,24.5 µM (active)
same,EC50,Streptokinase A,> 150 µM (not active)
COC(=O)/C=C/c1ccc(OC(=O)OC)c(OC(=O)OC)c1,IC50,[24],2.64 µM (active)
same,IC50,[25],> 100 µM (not active)
same,IC50,Large T antigen,12.1 µM (active)
same,IC50,[26],> 100 µM (inactive)
same,IC50,H9c2,> 79 µM (inactive)
CC(C)(C)CC(C)(C)c1ccc(O)c(Cc2ccc(Cl)cc2Cl)c1 [CLOFOCTOL],IC50,[27],> 33.3 µM (inactive)
same,IC50,[28],0.544 µM (active)
same,IC50,[29],9.07 µM (inactive)

# — ChEMBL document CHEMBL1201862, “PubChem BioAssay data set” (2004)
